Source: ChEMBL document CHEMBL1152082, “Topographical requirements for delta opioid ligands: The synthesis and biological properties of a cyclic analogue of deltorphin I” (Bioorg Med Chem Lett, 1992)
Bridge positions count the residues as written; N and C are the ends. Square brackets hold non-standard residues; d marks the D form. Peptide text beside a SMILES is read from it.

What was measured:
Mu-type opioid receptor [1] = target: Mu-type opioid receptor (Rattus norvegicus, UniProt P33535); test: Binding affinity against Opioid receptor mu 1 with [3H]CTOP
[2] = target: Delta-type opioid receptor (Mus musculus, UniProt P32300); test: Inhibitory activity against Mouse vas deferens smooth muscle; format: functional, tissue-based, Muscle tissue
[3] = target: Delta-type opioid receptor (Rattus norvegicus, UniProt P33533); test: Binding affinity against delta receptor with [3H][p-Cl-Phe4]-DPDPE
Mu-type opioid receptor [4] = target: Mu-type opioid receptor (Cavia porcellus, UniProt P97266); test: Inhibitory activity against Guinea pig ileum smooth muscle; format: functional, tissue-based
Chain of Mu-type opioid receptor (Cavia porcellus, UniProt P97266) (P97266 whole entry): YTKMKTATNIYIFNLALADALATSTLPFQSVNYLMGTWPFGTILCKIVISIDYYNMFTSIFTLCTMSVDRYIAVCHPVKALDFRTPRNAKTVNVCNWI

Chain of Mu-type opioid receptor (Rattus norvegicus, UniProt P33535) (P33535 whole entry): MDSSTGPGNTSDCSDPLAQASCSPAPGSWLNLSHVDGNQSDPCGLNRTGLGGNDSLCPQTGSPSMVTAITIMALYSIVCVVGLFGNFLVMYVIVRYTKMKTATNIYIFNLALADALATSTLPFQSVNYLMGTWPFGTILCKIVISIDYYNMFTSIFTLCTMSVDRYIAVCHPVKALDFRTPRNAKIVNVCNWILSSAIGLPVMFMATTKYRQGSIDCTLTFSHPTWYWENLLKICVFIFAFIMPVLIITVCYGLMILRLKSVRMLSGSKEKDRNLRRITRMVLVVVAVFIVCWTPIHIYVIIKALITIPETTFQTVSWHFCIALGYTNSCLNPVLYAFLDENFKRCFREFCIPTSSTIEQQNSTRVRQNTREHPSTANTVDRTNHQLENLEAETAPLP
Chain of Delta-type opioid receptor (Rattus norvegicus, UniProt P33533) (P33533 whole entry): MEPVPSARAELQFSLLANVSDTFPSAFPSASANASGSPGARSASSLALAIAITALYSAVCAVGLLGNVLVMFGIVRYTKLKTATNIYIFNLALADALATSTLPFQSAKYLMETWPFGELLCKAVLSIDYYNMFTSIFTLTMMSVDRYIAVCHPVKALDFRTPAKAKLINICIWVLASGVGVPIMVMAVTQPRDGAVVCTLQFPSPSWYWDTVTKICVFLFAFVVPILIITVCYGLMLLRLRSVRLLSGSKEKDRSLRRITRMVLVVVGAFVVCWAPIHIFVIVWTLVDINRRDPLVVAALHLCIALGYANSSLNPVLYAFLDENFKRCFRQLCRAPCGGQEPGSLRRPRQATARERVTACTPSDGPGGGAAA
Chain of Delta-type opioid receptor (Mus musculus, UniProt P32300) (P32300 whole entry): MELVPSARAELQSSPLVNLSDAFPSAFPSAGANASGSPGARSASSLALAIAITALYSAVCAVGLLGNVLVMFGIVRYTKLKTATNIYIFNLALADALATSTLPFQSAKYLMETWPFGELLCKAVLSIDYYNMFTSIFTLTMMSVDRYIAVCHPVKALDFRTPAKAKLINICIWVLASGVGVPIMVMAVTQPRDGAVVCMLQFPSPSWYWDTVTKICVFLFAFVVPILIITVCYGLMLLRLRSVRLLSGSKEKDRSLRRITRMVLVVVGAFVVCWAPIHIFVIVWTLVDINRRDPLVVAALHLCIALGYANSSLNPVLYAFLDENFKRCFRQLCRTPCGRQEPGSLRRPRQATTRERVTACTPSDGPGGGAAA

SMILES | IC50 (Mu-type opioid receptor [1]) [nM] | IC50 [2] [nM] | IC50 [3] [nM] | IC50 (Mu-type opioid receptor [4]) [nM]
CC(C)[C@H](NC(=O)[C@@H]1CSSC[C@@H](NC(=O)[C@@H](N)Cc2ccc(O)cc2)C(=O)N[C@@H](Cc2ccccc2)C(=O)N[C@@H](CC(=O)O)C(=O)N1)C(=O)NCC(N)=O (H-Y[dC]FDCVG-NH2; disulfide 2-5) | 5.15 | 0.23 | 0.87 | 2.98
CC(NC(=O)[C@@H](N)Cc1ccc(O)cc1)C(=O)N[C@@H](Cc1ccccc1)C(=O)N[C@@H](CC(=O)O)C(=O)N[C@H](C(=O)N[C@H](C(=O)NCC(N)=O)C(C)C)C(C)C (single isomer, unassigned) [DELTORPHIN C] | 2140 |  | 0.6 | 2.89
